Assay results as given in patent publication US10011573B2, “Human androgen receptor DNA-binding domain (DBD) compounds as therapeutics and methods for their use” (The University of British Columbia, priority 2014, dated 2018).

Columns and labels:
[1] = test system: AR AF1; test: AF1 assay (CREB and Gal4 plasmid in PC3 cells); assay type: cell-based
Source text: As there are other known binding sites in AR including the hormone binding site (HBS), activation function-2 (AF2) site, binding function 3 (BF3) and N-terminal activation function-1 (AF1) site, we utilized other assays to rule out possible binding to those sites. […] Then we used an AF1 assay to measure whether the potency of this compound comes from the inhibition of AF1 transactivation.

[2] = test system: MDV3100-resistant LNCaP cells (MR49F); test: Cell viability (MTS) assay, MDV3100 (Enzalutamide)-resistant cells; assay type: cell-based, human; conditions: 0.1 nM R1881
Method: 1. Cell Culture: LNCaP and PC3 human prostate cancer cells were obtained from American Type Culture Collection (ATCC, Manassas, Va.) and grown in RPMI 1640 medium supplemented with 5% fetal bovine serum (FBS) (Invitrogen). […]. All cells were maintained at 37° C. in 5% CO2.
7. Cell viability assay: The PC3, LNCaP, and MDV3100-resistant cells were plated at 3,000 cells per well in RPMI 1640 containing 5% charcoal stripped serum (CSS) in a 96-well plate, treated with 0.1 nM R1881 and compounds (0-25 μM) for 96 hrs.

[3] = molecular target: AR ligand binding domain (LBD) (Homo sapiens, UniProt P10275); test: Biolayer interferometry (BLI) assay, small molecule binding to AR
Chain of AR ligand binding domain (LBD) (P10275 669-900 limits assumed): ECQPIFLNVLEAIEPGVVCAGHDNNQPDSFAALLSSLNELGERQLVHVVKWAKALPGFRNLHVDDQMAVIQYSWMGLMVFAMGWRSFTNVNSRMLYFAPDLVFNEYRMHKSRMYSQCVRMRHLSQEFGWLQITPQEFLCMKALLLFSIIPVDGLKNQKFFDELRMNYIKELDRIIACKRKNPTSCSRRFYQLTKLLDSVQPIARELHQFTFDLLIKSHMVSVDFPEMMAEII
Method: 4. Biolayer interferometry (BLI) assay: The direct reversible interaction between small molecules and the AR was measured as previously described (Lack, Axerio-Cilies et al. 2011).

[4] = molecular target: T1, AR binding to PSA and FKBP5 enhancer (Homo sapiens, UniProt P10275, T878A); test: Chromatin immunoprecipitation (ChIP) in LNCaP cells; assay type: cell-based; conditions: R1881, 24 h
T1 construct: endogenous in cells; host or cells: LNCaP (LN-ARR2PB-eGFP reporter line for A1; parental LNCaP for ChIP)
T1 sequence (P10275 whole entry T878A): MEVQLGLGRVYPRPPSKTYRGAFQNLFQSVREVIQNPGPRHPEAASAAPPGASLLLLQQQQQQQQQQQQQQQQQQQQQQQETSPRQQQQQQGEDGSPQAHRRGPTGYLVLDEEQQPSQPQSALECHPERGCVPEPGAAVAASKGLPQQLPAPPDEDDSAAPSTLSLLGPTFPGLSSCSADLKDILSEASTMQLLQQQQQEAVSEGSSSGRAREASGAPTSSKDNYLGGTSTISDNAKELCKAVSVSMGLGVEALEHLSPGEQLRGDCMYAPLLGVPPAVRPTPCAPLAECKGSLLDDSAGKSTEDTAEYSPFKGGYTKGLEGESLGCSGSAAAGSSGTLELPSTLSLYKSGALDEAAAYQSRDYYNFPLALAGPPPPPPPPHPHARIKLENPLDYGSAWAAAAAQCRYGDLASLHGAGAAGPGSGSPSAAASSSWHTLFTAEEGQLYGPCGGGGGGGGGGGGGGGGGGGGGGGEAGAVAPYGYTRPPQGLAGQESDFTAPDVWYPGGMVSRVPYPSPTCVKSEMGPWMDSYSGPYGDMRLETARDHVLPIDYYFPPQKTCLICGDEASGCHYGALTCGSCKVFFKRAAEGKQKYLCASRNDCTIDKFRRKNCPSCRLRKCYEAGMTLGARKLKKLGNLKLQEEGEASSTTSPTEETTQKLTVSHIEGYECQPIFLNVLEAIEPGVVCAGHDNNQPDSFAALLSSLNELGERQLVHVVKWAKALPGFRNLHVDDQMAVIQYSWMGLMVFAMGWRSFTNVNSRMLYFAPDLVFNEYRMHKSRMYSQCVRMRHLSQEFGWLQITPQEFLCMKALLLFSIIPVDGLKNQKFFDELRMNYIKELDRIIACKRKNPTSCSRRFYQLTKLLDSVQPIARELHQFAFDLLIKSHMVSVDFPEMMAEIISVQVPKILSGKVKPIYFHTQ

c1ccc(-c2csc(N3CCOCC3)n2)cc1 [Compound 14228, 4-(4-phenylthiazol-2-yl)morpholine]
inhibition of CREB and Gal4 (AF1) [1]: no inhibition | inhibition of cell growth, MDV3100/Enzalutamide-resistant cells [2]: strongly inhibits | binding in the C-terminal LBD (BLI) [3]: no binding

Brc1ncn(-c2csc(N3CCOCC3)n2)c1Br [Compound 14449]
AR pulldown of the PSA and FKBP5 enhancer [4]: reduced AR pulldown
